This is an account of results in patent US20100210539A1, “USE OF PEPTIDE LL-37 AS A THERAPEUTIC AGENT” (priority 2007, published 2010).

By % inhibition is commonly meant the percentage by which the read-out fell short of the control.

The assay deals with drug-resistant Mycobacterium tuberculosis. The following applies: peptide 10 micrograms per ml, seven days.

Take `CC[C@H](C)[C@H](NC(=O)[C@H](CCCCN)NC(=O)[C@H](CCC(=O)O)NC(=O)[C@H](CCCCN)NC(=O)[C@H](CO)NC(=O)[C@H](CCCCN)NC(=O)[C@H](CCCNC(=N)N)NC(=O)[C@H](Cc1ccccc1)NC(=O)[C@H](Cc1ccccc1)NC(=O)[C@H](CC(=O)O)NC(=O)CNC(=O)[C@H](CC(C)C)NC(=O)[C@@H](N)CC(C)C)C(=O)NCC(=O)N[C@@H](CCCCN)C(=O)N[C@@H](CCC(=O)O)C(=O)N[C@@H](Cc1ccccc1)C(=O)N[C@@H](CCCCN)C(=O)N[C@@H](CCCNC(=N)N)C(=O)N[C@H](C(=O)N[C@H](C(=O)N[C@@H](CCC(N)=O)C(=O)N[C@@H](CCCNC(=N)N)C(=O)N[C@H](C(=O)N[C@@H](CCCCN)C(=O)N[C@@H](CC(=O)O)C(=O)N[C@@H](Cc1ccccc1)C(=O)N[C@@H](CC(C)C)C(=O)N[C@@H](CCCNC(=N)N)C(=O)N[C@@H](CC(N)=O)C(=O)N[C@@H](CC(C)C)C(=O)N[C@H](C(=O)N1CCC[C@H]1C(=O)N[C@@H](CCCNC(=N)N)C(=O)N[C@H](C(=O)N[C@@H](CCC(=O)O)C(=O)N[C@@H](CO)C(N)=O)[C@@H](C)O)C(C)C)[C@@H](C)CC)C(C)C)[C@@H](C)CC` [LL-37]: the “% inhibition” value was determined as 0.0%.
